Measured values from ChEMBL document CHEMBL1201861, “Genomics of Drug Sensitity in Cancer screening data, Wellcome Trust Sanger Institute”.

Assays:
Assay in all cases: cells
Format in all cases: functional, cell-based, Homo sapiens
COLO-829 = system: COLO-829
Description: SANGER: Inhibition of human COLO-829 cell growth in a cell viability assay.

CP66-MEL = system: CP66-MEL;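 note: growth inhibition of CP66-MEL cells determined in a cell viability assay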
Description: SANGER: Inhibition of human CP66-MEL cell growth in a cell viability assay.

CTV-1 = system: CTV-1;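 note: growth inhibition of the cell line, read out with a cell viability assay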
Description: SANGER: Inhibition of human CTV-1 cell growth in a cell viability assay.

D283 Med = system: D283 Med
Description: SANGER: Inhibition of human D-283MED cell growth in a cell viability assay.

DJM-1 = system: DJM-1;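 note: growth inhibition of human DJM-1 cells, read out by a cell viability assay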
Description: SANGER: Inhibition of human DJM-1 cell growth in a cell viability assay.

EKVX = system: EKVX;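 note: growth inhibition of human EKVX cells, read out with a cell viability assay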
Description: SANGER: Inhibition of human EKVX cell growth in a cell viability assay.

EW-1 = system: EW-1;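 note: growth inhibition of the human EW-1 cell line, read out by a cell viability assay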
Description: SANGER: Inhibition of human EW-1 cell growth in a cell viability assay.

EW-18 = system: EW-18;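 note: growth inhibition of EW-18 cells, read out by a cell viability assay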
Description: SANGER: Inhibition of human EW-18 cell growth in a cell viability assay.

GB-1 = system: GB-1;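 note: growth of GB-1 cells judged by a viability assay, IC50 marks the concentration inhibiting growth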
Description: SANGER: Inhibition of human GB-1 cell growth in a cell viability assay.

GCIY = system: GCIY;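 note: growth inhibition of the human GCIY cell line, read out by a cell viability assay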
Description: SANGER: Inhibition of human GCIY cell growth in a cell viability assay.

GI-1 = system: GI-1;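 note: growth inhibition of human GI-1 cells, measured with a cell viability readout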
Description: SANGER: Inhibition of human GI-1 cell growth in a cell viability assay.

GR-ST = system: GR-ST
Description: SANGER: Inhibition of human GR-ST cell growth in a cell viability assay.

HCE-T = system: HCE-T;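 note: cell viability assay read-out, reporting inhibition of HCE-T cell growth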
Description: SANGER: Inhibition of human HCE-T cell growth in a cell viability assay.

HT-144 = system: HT-144
Description: SANGER: Inhibition of human HT-144 cell growth in a cell viability assay.

JVM-2 = system: JVM-2;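 note: growth inhibition of JVM-2 cells determined by a cell viability assay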
Description: SANGER: Inhibition of human JVM-2 cell growth in a cell viability assay.

JVM-3 = system: JVM-3;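 note: growth inhibition of human JVM-3 cells, read out with a cell viability assay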
Description: SANGER: Inhibition of human JVM-3 cell growth in a cell viability assay.

KALS-1 = system: KALS-1;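 note: growth inhibition of KALS-1 cells, determined with a cell viability assay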
Description: SANGER: Inhibition of human KALS-1 cell growth in a cell viability assay.

KARPAS-299 = system: KARPAS-299
Description: SANGER: Inhibition of human KARPAS-299 cell growth in a cell viability assay.

KGN = system: KGN;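 note: growth inhibition of KGN cells, read out with a cell viability assay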
Description: SANGER: Inhibition of human KGN cell growth in a cell viability assay.

KNS-42 = system: KNS-42;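 note: growth inhibition of KNS-42 cells, read out with a cell viability assay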
Description: SANGER: Inhibition of human KNS-42 cell growth in a cell viability assay.

KP-N-YS = system: KP-N-YS;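 note: cell viability assay measuring inhibition of cell line growth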
Description: SANGER: Inhibition of human KP-N-YS cell growth in a cell viability assay.

LB2241-RCC = system: LB2241-RCC;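 note: cell viability assay measuring how strongly the cultured human renal carcinoma line is prevented from growing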
Description: SANGER: Inhibition of human LB2241-RCC cell growth in a cell viability assay.

LS-1034 = system: LS-1034
Description: SANGER: Inhibition of human LS-1034 cell growth in a cell viability assay.

LS-513 = system: LS-513
Description: SANGER: Inhibition of human LS-513 cell growth in a cell viability assay.

MHH-NB-11 = system: MHH-NB-11;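 note: growth inhibition of human MHH-NB-11 cells, read out by a cell viability assay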
Description: SANGER: Inhibition of human MHH-NB-11 cell growth in a cell viability assay.

MHH-PREB-1 = system: MHH-PREB-1;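 note: cell viability assay measuring inhibition of proliferation of human MHH-PREB-1 cells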
Description: SANGER: Inhibition of human MHH-PREB-1 cell growth in a cell viability assay.

MMAC-SF = system: MMAC-SF;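 note: growth inhibition of human MMAC-SF cells, read out with a cell viability assay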
Description: SANGER: Inhibition of human MMAC-SF cell growth in a cell viability assay.

MOLT-4 = system: MOLT-4;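 note: growth inhibition of MOLT-4 cells, determined with a cell viability readout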
Description: SANGER: Inhibition of human MOLT-4 cell growth in a cell viability assay.

MSTO-211H = system: MSTO-211H
Description: SANGER: Inhibition of human MSTO-211H cell growth in a cell viability assay.

Mo = system: Mo
Description: SANGER: Inhibition of human Mo-T cell growth in a cell viability assay.

NB5 = system: NB5;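 note: growth inhibition of NB5 cells, read out as cell viability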
Description: SANGER: Inhibition of human NB5 cell growth in a cell viability assay.

NB69 = system: NB69;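 note: growth inhibition of NB69 cells, determined by a cell viability assay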
Description: SANGER: Inhibition of human NB69 cell growth in a cell viability assay.

NCI-H1304 = system: NCI-H1304;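 note: growth inhibition of the cancer cell line, measured in a cell viability assay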
Description: SANGER: Inhibition of human NCI-H1304 cell growth in a cell viability assay.

NCI-H23 = system: NCI-H23;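 note: cell viability assay measuring growth inhibition of NCI-H23 cells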
Description: SANGER: Inhibition of human NCI-H23 cell growth in a cell viability assay.

NCI-H510A = system: NCI-H510A;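 note: growth inhibition of NCI-H510A cells, read out with a cell viability assay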
Description: SANGER: Inhibition of human NCI-H510A cell growth in a cell viability assay.

NCI-H747 = system: NCI-H747;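 note: growth inhibition of human NCI-H747 cells, read out by a cell viability assay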
Description: SANGER: Inhibition of human NCI-H747 cell growth in a cell viability assay.

NTERA-2-cl-D1 = system: NTERA-2-cl-D1;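 note: inhibition of cell growth, measured with a cell viability assay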
Description: SANGER: Inhibition of human NTERA-S-cl-D1 cell growth in a cell viability assay.

OCI-AML2 = system: OCI-AML2;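 note: growth inhibition of OCI-AML2 cells, read out with a cell viability assay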
Description: SANGER: Inhibition of human OCI-AML2 cell growth in a cell viability assay.

OS-RC-2 = system: OS-RC-2;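 note: growth inhibition of human OS-RC-2 cells, measured by a cell viability assay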
Description: SANGER: Inhibition of human OS-RC-2 cell growth in a cell viability assay.

P30-OHK = system: P30-OHK;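 note: growth inhibition of the P30-OHK cell line, read out with a cell viability assay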
Description: SANGER: Inhibition of human P30-OHK cell growth in a cell viability assay.

Ramos-2G6-4C10 = system: Ramos-2G6-4C10;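 note: growth inhibition of the cell line, measured by a cell viability read-out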
Description: SANGER: Inhibition of human Ramos-2G6-4C10 cell growth in a cell viability assay.

SCC-15 = system: SCC-15;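 note: growth inhibition of SCC-15 cells, read out with a cell viability assay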
Description: SANGER: Inhibition of human SCC-15 cell growth in a cell viability assay.

SK-MEL-1 = system: SK-MEL-1;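 note: growth inhibition of human SK-MEL-1 cells, read out by a cell viability assay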
Description: SANGER: Inhibition of human SK-MEL-1 cell growth in a cell viability assay.

A388 = system: A388;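 note: growth inhibition of human A388 cells, read out with a cell viability assay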
Description: SANGER: Inhibition of human A388 cell growth in a cell viability assay.

A4-Fuk = system: A4-Fuk;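 note: growth inhibition of A4-Fuk cells, read out by a cell viability assay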
Description: SANGER: Inhibition of human A4-Fuk cell growth in a cell viability assay.

TE-11 = system: TE-11;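 note: growth inhibition of human TE-11 cells, read out by a cell viability assay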
Description: SANGER: Inhibition of human TE-11 cell growth in a cell viability assay.

VA-ES-BJ = system: VA-ES-BJ;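 note: growth inhibition of the VA-ES-BJ cell line, read out by a cell viability assay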
Description: SANGER: Inhibition of human VA-ES-BJ cell growth in a cell viability assay.

no-10 = system: no-10;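 note: growth inhibition of no-10 cells, read out with a cell viability assay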
Description: SANGER: Inhibition of human no-10 cell growth in a cell viability assay.

COLO-320-HSR = system: COLO-320-HSR;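 note: growth inhibition of COLO-320-HSR cells, determined with a cell viability assay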
Description: SANGER: Inhibition of human COLO-320-HSR cell growth in a cell viability assay.

CS(=O)(=O)c1ccc(C(=O)Nc2ccc(Cl)c(-c3ccccn3)c2)c(Cl)c1 [VISMODEGIB]
IC50 (COLO-829; Homo sapiens, COLO-829): > 10 µM
IC50 (CP66-MEL; Homo sapiens, CP66-MEL): > 10 µM
IC50 (CTV-1; Homo sapiens, CTV-1): > 10 µM
IC50 (D283 Med; Homo sapiens, D283 Med): > 10 µM
IC50 (DJM-1; Homo sapiens, DJM-1): > 10 µM
IC50 (EKVX; Homo sapiens, EKVX): > 10 µM
IC50 (EW-1; Homo sapiens, EW-1): > 10 µM
IC50 (EW-18; Homo sapiens, EW-18): > 10 µM
IC50 (GB-1; Homo sapiens, GB-1): > 10 µM
IC50 (GCIY; Homo sapiens, GCIY): > 10 µM
IC50 (GI-1; Homo sapiens, GI-1): > 10 µM
IC50 (GR-ST; Homo sapiens, GR-ST): > 10 µM
IC50 (HCE-T; Homo sapiens, HCE-T): 1.32 µM
IC50 (HT-144; Homo sapiens, HT-144): > 10 µM
IC50 (JVM-2; Homo sapiens, JVM-2): > 10 µM
IC50 (JVM-3; Homo sapiens, JVM-3): > 10 µM
IC50 (KALS-1; Homo sapiens, KALS-1): > 10 µM
IC50 (KARPAS-299; Homo sapiens, KARPAS-299): > 10 µM
IC50 (KGN; Homo sapiens, KGN): > 10 µM
IC50 (KNS-42; Homo sapiens, KNS-42): > 10 µM
IC50 (KP-N-YS; Homo sapiens, KP-N-YS): > 10 µM
IC50 (LB2241-RCC; Homo sapiens, LB2241-RCC): > 10 µM
IC50 (LS-1034; Homo sapiens, LS-1034): > 10 µM
IC50 (LS-513; Homo sapiens, LS-513): > 10 µM
IC50 (MHH-NB-11; Homo sapiens, MHH-NB-11): > 10 µM
IC50 (MHH-PREB-1; Homo sapiens, MHH-PREB-1): > 10 µM
IC50 (MMAC-SF; Homo sapiens, MMAC-SF): > 10 µM
IC50 (MOLT-4; Homo sapiens, MOLT-4): > 10 µM
IC50 (MSTO-211H; Homo sapiens, MSTO-211H): > 10 µM
IC50 (Mo; Homo sapiens, Mo): > 10 µM
IC50 (NB5; Homo sapiens, NB5): > 10 µM
IC50 (NB69; Homo sapiens, NB69): > 10 µM
IC50 (NCI-H1304; Homo sapiens, NCI-H1304): > 10 µM
IC50 (NCI-H23; Homo sapiens, NCI-H23): > 10 µM
IC50 (NCI-H510A; Homo sapiens, NCI-H510A): > 10 µM
IC50 (NCI-H747; Homo sapiens, NCI-H747): > 10 µM
IC50 (NTERA-2-cl-D1; Homo sapiens, NTERA-2-cl-D1): > 10 µM
IC50 (OCI-AML2; Homo sapiens, OCI-AML2): > 10 µM
IC50 (OS-RC-2; Homo sapiens, OS-RC-2): > 10 µM
IC50 (P30-OHK; Homo sapiens, P30-OHK): > 10 µM
IC50 (Ramos-2G6-4C10; Homo sapiens, Ramos-2G6-4C10): > 10 µM
IC50 (SCC-15; Homo sapiens, SCC-15): > 10 µM
IC50 (SK-MEL-1; Homo sapiens, SK-MEL-1): > 10 µM
IC50 (A388; Homo sapiens, A388): > 10 µM
IC50 (A4-Fuk; Homo sapiens, A4-Fuk): > 10 µM
IC50 (TE-11; Homo sapiens, TE-11): > 10 µM
IC50 (VA-ES-BJ; Homo sapiens, VA-ES-BJ): > 10 µM
IC50 (no-10; Homo sapiens): > 10 µM
IC50 (COLO-320-HSR; Homo sapiens, COLO-320-HSR): > 10 µM

CISPLATIN
IC50 (COLO-829; colo-829): 7.27 µM
IC50 (CP66-MEL; cp66-mel): 32 µM
IC50 (CTV-1; ctv-1): 34 µM
IC50 (D283 Med; d283 med): 5.85 µM
IC50 (DJM-1; djm-1): 6.36 µM
IC50 (EKVX; ekvx): 485 µM
IC50 (EW-1; ew-1): 8.48 µM
IC50 (EW-18; ew-18): 35.2 µM
IC50 (GB-1; gb-1): 1.9 µM
IC50 (GCIY; gciy): 18.5 µM
IC50 (GI-1; gi-1): 2.06 µM
IC50 (GR-ST; gr-st): 7.5 µM
IC50 (HCE-T; hce-t): 7.9 µM
IC50 (HT-144; ht-144): 3.58 µM
IC50 (JVM-2; jvm-2): 568 µM
IC50 (JVM-3; jvm-3): 39.7 µM
IC50 (KALS-1; kals-1): 71.1 µM
IC50 (KARPAS-299; karpas-299): 172 µM
IC50 (KGN; kgn): 17.6 µM
IC50 (KNS-42; kns-42): 20.5 µM
IC50 (KP-N-YS; kp-n-ys): 811 µM
IC50 (LB2241-RCC; lb2241-rcc): 11.3 µM
IC50 (LS-1034; ls-1034): 22.7 µM
IC50 (LS-513; ls-513): 61.6 µM
IC50 (MHH-NB-11; mhh-nb-11): 4.83 µM
IC50 (MHH-PREB-1; mhh-preb-1): 23.8 µM
IC50 (MMAC-SF; mmac-sf): 531 µM
IC50 (MOLT-4; molt-4): 88.8 µM
IC50 (MSTO-211H; msto-211h): 57.1 µM
IC50 (Mo; mo): 892 µM
IC50 (NB5; nb5): 5.48 µM
IC50 (NB69; nb69): 52.1 µM
IC50 (NCI-H1304; nci-h1304): 9.85 µM
IC50 (NCI-H23; nci-h23): 40 µM
IC50 (NCI-H510A; nci-h510a): 3.1 µM
IC50 (NCI-H747; nci-h747): 16.9 µM
IC50 (NTERA-2-cl-D1; ntera-2-cl-d1): 0.848 µM
IC50 (OCI-AML2; oci-aml2): 15.3 µM
IC50 (OS-RC-2; os-rc-2): 3.87 µM
IC50 (P30-OHK; p30-ohk): 2.71 µM
IC50 (Ramos-2G6-4C10; ramos-2g6-4c10): 26.5 µM
IC50 (SCC-15; scc-15): 28.9 µM
IC50 (SK-MEL-1; sk-mel-1): 14.7 µM
IC50 (A388; a388): 51.9 µM
IC50 (A4-Fuk; a4-fuk): 47.5 µM
IC50 (TE-11; te-11): 16.4 µM
IC50 (VA-ES-BJ; va-es-bj): 2.45 µM
IC50 (no-10): 77.8 µM
IC50 (COLO-320-HSR; colo-320-hsr): 338 µM
